This passage reports IC50 results from US9580437B2, “Triazolopyrimidine compounds and uses thereof” (Novartis AG, priority 2014, dated 2017).

pIC50: −log10 of the molar value.

The subject of assay [1] is H3K27 methylation in G401 cell. The experiment in a line: ELISA (H3K27 methylation) assay in G401 cells. It counts as cell-based, human. Particulars: read-out: (c) IC50 ELISA Qualified. The method, then: (§1) A 6 μL solution of 3 μM of the peptide substrate H3K27Me0 (histone H3[21-44]-biotin) in reaction buffer was added to initiate each reaction. […] ELISA (H3K27 Methylation) Assay
(In general: In an ELISA, binding on a coated surface is turned into a signal by an enzyme label.)

A further assay deals with EED (1-441)-His protein (Homo sapiens (Human), UniProt O75530). In words: EED-H3K27Me3 peptide competition binding assay by AlphaScreen. The settings on record: read-out: (a) IC50 EED Alphascreen binding Qualified. The text has this:
EED-H3K27Me3 peptide competition binding assay by AlphaScreen (α-screen)
In general terms: In Alpha technology, singlet oxygen from a donor bead excites a nearby acceptor bead.

The target of assay [2] is wild type PRC2 (wtPRC2) complex (Homo sapiens (Human), UniProt O75530). The experiment in a line: EED LC-MS assay. It counts as biochemical. Particulars: read-out: (b) IC50 EED LC-MS Qualified. The procedure: as §1
Sequence of wild type PRC2 (wtPRC2) complex (O75530 whole entry): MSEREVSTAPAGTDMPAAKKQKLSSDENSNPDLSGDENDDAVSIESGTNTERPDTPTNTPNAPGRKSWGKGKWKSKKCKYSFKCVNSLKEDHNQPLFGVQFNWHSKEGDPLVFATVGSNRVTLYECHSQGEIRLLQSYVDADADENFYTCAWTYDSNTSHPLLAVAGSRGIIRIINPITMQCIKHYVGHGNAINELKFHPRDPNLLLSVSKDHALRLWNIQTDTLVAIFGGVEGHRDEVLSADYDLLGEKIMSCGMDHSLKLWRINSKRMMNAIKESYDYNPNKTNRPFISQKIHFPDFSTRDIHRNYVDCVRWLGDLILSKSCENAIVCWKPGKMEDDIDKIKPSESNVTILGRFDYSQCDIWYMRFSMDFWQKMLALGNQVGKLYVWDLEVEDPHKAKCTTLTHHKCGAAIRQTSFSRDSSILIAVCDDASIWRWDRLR
Sequence of wild type PRC2 (wtPRC2) complex (Q15910 whole entry partner): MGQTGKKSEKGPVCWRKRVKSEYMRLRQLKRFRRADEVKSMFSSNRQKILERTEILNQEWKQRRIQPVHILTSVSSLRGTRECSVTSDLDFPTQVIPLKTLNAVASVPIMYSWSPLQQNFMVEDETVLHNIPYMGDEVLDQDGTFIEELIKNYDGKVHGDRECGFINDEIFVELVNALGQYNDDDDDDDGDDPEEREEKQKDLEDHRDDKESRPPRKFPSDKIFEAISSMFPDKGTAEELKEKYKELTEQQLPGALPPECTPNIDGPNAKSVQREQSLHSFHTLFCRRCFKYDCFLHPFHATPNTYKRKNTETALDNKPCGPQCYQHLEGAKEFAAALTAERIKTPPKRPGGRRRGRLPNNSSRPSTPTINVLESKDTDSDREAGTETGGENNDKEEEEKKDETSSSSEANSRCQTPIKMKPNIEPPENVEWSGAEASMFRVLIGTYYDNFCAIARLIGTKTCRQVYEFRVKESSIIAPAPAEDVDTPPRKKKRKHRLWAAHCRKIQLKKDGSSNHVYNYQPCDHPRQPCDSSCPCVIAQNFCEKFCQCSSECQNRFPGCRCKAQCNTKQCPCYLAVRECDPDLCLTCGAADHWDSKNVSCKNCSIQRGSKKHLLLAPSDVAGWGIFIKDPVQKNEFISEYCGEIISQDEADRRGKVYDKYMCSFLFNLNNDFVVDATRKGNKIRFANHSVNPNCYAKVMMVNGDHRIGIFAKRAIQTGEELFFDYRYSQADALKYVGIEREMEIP
Sequence of wild type PRC2 (wtPRC2) complex (Q15022 whole entry partner): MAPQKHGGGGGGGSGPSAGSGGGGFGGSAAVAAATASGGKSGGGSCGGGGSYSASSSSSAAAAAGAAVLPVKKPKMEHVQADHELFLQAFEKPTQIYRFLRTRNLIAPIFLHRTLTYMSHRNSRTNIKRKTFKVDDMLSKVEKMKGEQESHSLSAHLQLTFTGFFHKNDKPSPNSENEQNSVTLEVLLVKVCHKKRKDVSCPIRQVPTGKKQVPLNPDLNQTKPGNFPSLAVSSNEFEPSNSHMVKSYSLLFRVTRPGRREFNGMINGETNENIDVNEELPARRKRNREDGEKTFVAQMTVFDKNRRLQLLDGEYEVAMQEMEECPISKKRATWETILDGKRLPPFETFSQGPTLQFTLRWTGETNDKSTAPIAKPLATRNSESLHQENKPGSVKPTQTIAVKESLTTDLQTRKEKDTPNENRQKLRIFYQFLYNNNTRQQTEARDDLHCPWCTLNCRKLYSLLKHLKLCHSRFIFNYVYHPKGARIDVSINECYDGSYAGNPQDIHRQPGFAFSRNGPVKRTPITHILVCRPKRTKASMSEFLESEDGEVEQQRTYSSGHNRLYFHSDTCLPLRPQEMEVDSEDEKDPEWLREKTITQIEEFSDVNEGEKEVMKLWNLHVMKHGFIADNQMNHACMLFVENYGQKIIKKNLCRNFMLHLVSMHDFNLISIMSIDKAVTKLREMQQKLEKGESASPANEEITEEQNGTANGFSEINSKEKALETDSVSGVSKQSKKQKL

Sequence of EED (1-441)-His protein (O75530 whole entry): as the sequence (O75530 whole entry) above

By pIC50 is commonly meant the negative decadic logarithm of the IC50, by convention in mol/L. With `Cc1ncccc1-c1cnc(NCc2c(F)ccc3c2CCO3)n2cnnc12` [Example 2, N-((5-fluoro-2,3-dihydrobenzofuran-4-yl)methyl)-8-(2-methylpyridin-3-yl)-[1,2,4]triazolo[4,3-c]pyrimidin-5-amine], the pIC50 in assay [1] is 8.59.

With `OCc1ccc(-c2cnc(NCc3c(F)ccc4c3CCO4)n3cnnc23)cn1` [Example 234, (5-(5-(((5-fluoro-2,3-dihydrobenzofuran-4-yl)methyl)amino)-[1,2,4]triazolo[4,3-c]pyrimidin-8-yl)pyridin-2-yl)methanol], the pIC50 is 8.27 at EED (1-441)-His protein and 7.95 in assay [2].

In the case of `Fc1ccc2c(c1CNc1ncc(F)c3nncn13)CCO2` [Example 235, 8-fluoro-N-((5-fluoro-2,3-dihydrobenzofuran-4-yl)methyl)-[1,2,4]triazolo[4,3-c]pyrimidin-5-amine], the pIC50 on EED (1-441)-His protein is 7.40; in assay [2], 7.19.

Take `Cc1cn(-c2cnc(NCc3c(F)ccc4c3CCO4)n3cnnc23)c(C)n1` [Example 236, 8-(2,4-dimethyl-1H-imidazol-1-yl)-N-((5-fluoro-2,3-dihydrobenzofuran-4-yl)methyl)-[1,2,4]triazolo[4,3-c]pyrimidin-5-amine]: the pIC50 on EED (1-441)-His protein is 7.99; in assay [2], 7.63.

On to `Fc1ccc2c(c1CNc1ncc(-n3cccn3)c3nncn13)CCO2` [Example 237, N-((5-fluoro-2,3-dihydrobenzofuran-4-yl)methyl)-8-(1H-pyrazol-1-yl)-[1,2,4]triazolo[4,3-c]pyrimidin-5-amine], for which the pIC50 at EED (1-441)-His protein is 8.51; in assay [2], 8.00.

Consider `Cc1ncn(-c2cnc(NCc3c(F)ccc4c3CCO4)n3cnnc23)n1` [Example 238, N-((5-fluoro-2,3-dihydrobenzofuran-4-yl)methyl)-8-(3-methyl-1H-1,2,4-triazol-1-yl)-[1,2,4]triazolo[4,3-c]pyrimidin-5-amine], for which the pIC50 on EED (1-441)-His protein was 8.33; in assay [2], 7.84.

For the compound `Cc1cnn(-c2cnc(NCc3c(F)ccc4c3CCO4)n3cnnc23)c1` [Example 239, N-((5-fluoro-2,3-dihydrobenzofuran-4-yl)methyl)-8-(4-methyl-1H-pyrazol-1-yl)-[1,2,4]triazolo[4,3-c]pyrimidin-5-amine], the figures for the pIC50 (at EED (1-441)-His protein; in assay [2]) were 8.17 and 7.80, respectively.

On to `Fc1ccc2c(c1CNc1ncc(-n3ccnc3)c3nncn13)CCO2` [Example 240, N-((5-fluoro-2,3-dihydrobenzofuran-4-yl)methyl)-8-(1H-imidazol-1-yl)-[1,2,4]triazolo[4,3-c]pyrimidin-5-amine], for which the pIC50 was 8.31 at EED (1-441)-His protein and 7.84 in assay [2].

Take `Fc1ccc2c(c1CNc1ncc(-n3cncn3)c3nncn13)CCO2` [Example 241, N-((5-fluoro-2,3-dihydrobenzofuran-4-yl)methyl)-8-(1H-1,2,4-triazol-1-yl)-[1,2,4]triazolo[4,3-c]pyrimidin-5-amine]: the pIC50 was 7.95 on EED (1-441)-His protein and 7.52 in assay [2].

Regarding `Cc1ncccc1-c1cnc(NCc2c(F)ccc3c2C(O)CO3)n2cnnc12` (stereo not shown) [Example 242, 5-fluoro-4-(((8-(2-methylpyridin-3-yl)-[1,2,4]triazolo[4,3-c]pyrimidin-5-yl)amino)methyl)-2,3-dihydrobenzofuran-3-ol], the pIC50 on EED (1-441)-His protein was 7.86; in assay [2], 7.30.

Take `OCc1ncccc1-c1cnc(NCc2c(F)ccc3c2C(O)CO3)n2cnnc12` (stereo not shown) [Example 243, 5-fluoro-4-(((8-(2-(hydroxymethyl)pyridin-3-yl)-[1,2,4]triazolo[4,3-c]pyrimidin-5-yl)amino)methyl)-2,3-dihydrobenzofuran-3-ol]: the pIC50 on EED (1-441)-His protein was 7.81; in assay [2], 7.23.

Take `Cc1c(-c2cnc(NCc3c(F)ccc4c3C(O)CO4)n3cnnc23)ccc[n+]1[O-]` (stereo not shown) [Example 244, 3-(5-(((5-fluoro-3-hydroxy-2,3-dihydrobenzofuran-4-yl)methyl)amino)-[1,2,4]triazolo[4,3-c]pyrimidin-8-yl)-2-methylpyridine 1-oxide]: the pIC50 at EED (1-441)-His protein is 7.93; in assay [2], 7.41.

As for `Cc1ncc(-c2cnc(NCc3c(F)ccc4c3CCO4)n3cnnc23)n1C` [Example 245, 8-(1,2-dimethyl-1H-imidazol-5-yl)-N-((5-fluoro-2,3-dihydrobenzofuran-4-yl)methyl)-[1,2,4]triazolo[4,3-c]pyrimidin-5-amine], the figures for the pIC50 (on EED (1-441)-His protein; in assay [2]) were 7.17 and 6.65, respectively.
